Reference: patent publication US4200575A, “7[(2-Thiazolyl)-2-(oxoimino)acetamido]cephalosporin derivatives” (Takeda Chemical Industries, Ltd., priority 1977, dated 1980)

Assays:
E. coli 0-111 = assay: Minimal inhibitory concentration (M.I.C.), agar dilution method; type: cell-based, Escherichia coli; conditions: TSA, inoculum 10^7 /ml
Method in brief: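 MIC against E. coli O-111 was determined by agar dilution.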

P. morganii IFO 3168 = assay: as above; type: cell-based, Proteus morganii; conditions: TSA, inoculum 10^7 /ml
Excerpt: (§1) (a) Determination of minimal inhibitory concentrations (Tables 1 to 8):
(§2) Procedure: agar dilution method

C. freundii GN 1706 = assay: as above; type: cell-based, Citrobacter freundii; conditions: TSA, inoculum 10^7 /ml
Excerpt: as §1, §2

C. freundii GN 99 = assay: as above; type: cell-based, Citrobacter freundii; conditions: TSA, inoculum 10^7 /ml
Excerpt: as §1, §2

E. coli NIHJ JC-2 = assay: as above; type: cell-based, Escherichia coli; conditions: TSA, inoculum 10^7 /ml
Excerpt: as §1, §2

E. coli T-7 = assay: as above; type: cell-based, Escherichia coli; conditions: TSA, inoculum 10^7 /ml
Excerpt: as §1, §2

Escherichia coli 0-111 = assay: Therapeutic effects in infected mice; type: in vivo, Male mice ICR/SLC; conditions: Escherichia coli, 0111, sc, 168 h
Procedure: The preliminary therapeutic effects of some cephalosporin derivatives of this invention as determined in infected mice were as follows.
Determination of therapeutic effects in infected mice
Test animals: Male mice ICR/SLC
Each compound was administered to a group of 5 animals.
Route of infection: Intraperitoneally infected with Escherichia coli 0-111
Period of observation: 7 days.
Method of administration:
One mg of each test compound was dissolved in 100 ml of sterile physiological saline and a dilution series of the same solution was prepared. These solutions were respectively injected subcutaneously into mice immediately after infection, in a single dose of 0.2 ml each.

P. vulgaris GN 4413 = assay: Minimal inhibitory concentration (M.I.C.), agar dilution method; type: cell-based, Proteus vulgaris; conditions: TSA, inoculum 10^7 /ml
Excerpt: as §1, §2

P. vulgaris IFO 3988 = assay: as above; type: cell-based, Proteus vulgaris; conditions: TSA, inoculum 10^7 /ml
Excerpt: as §1, §2

S. aureus 1840 = assay: as above; type: cell-based, Staphylococcus aureus; conditions: TSA, inoculum 10^7 /ml
Excerpt: as §1, §2

S. aureus 209P = assay: as above; type: cell-based, Staphylococcus aureus; conditions: TSA, inoculum 10^7 /ml
Excerpt: as §1, §2

P. rettgeri TN 338 = assay: as above; type: cell-based, Proteus rettgeri; conditions: TSA, inoculum 10^7 /ml
Excerpt: as §1, §2

P. rettgeri GN4733 = assay: as above; type: cell-based, Proteus rettgeri; conditions: TSA, inoculum 10^7 /ml
Excerpt: as §1, §2

P. mirabilis GN 4359 = assay: as above; type: cell-based, Proteus mirabilis; conditions: TSA, inoculum 10^7 /ml
Excerpt: as §1, §2

K. pneumoniae GN 3835 = assay: as above; type: cell-based, Klebsiella pneumoniae; conditions: TSA, inoculum 10^7 /ml
Excerpt: as §1, §2

K. pneumoniae DT = assay: as above; type: cell-based, Klebsiella pneumoniae; conditions: TSA, inoculum 10^7 /ml
Excerpt: as §1, §2

E. cloacae TN 1282 = assay: as above; type: cell-based, Enterobacter cloacae; conditions: TSA, inoculum 10^7 /ml
Excerpt: as §1, §2

S. marcescens IFO 12648 = assay: as above; type: cell-based, Serratia marcescens; conditions: TSA, inoculum 10^7 /ml
Excerpt: as §1, §2

S. marcescens TN 24 = assay: as above; type: cell-based, Serratia marcescens; conditions: TSA, inoculum 10^7 /ml
Excerpt: as §1, §2

CCCCNC(=O)O/N=C(\C(=O)NC1C(=O)N2C(C(=O)O)=C(COC(N)=O)CSC12)c1csc(=N)[nH]1 (stereo not drawn) [Example II - 21, sodium 7-[2-(2-imino-4-thiazolin-4-yl)-2-butylcarbamoyloximinoacetamido]-3-carbamoyloxymethyl-3-cephem-4-carboxylate (syn-isomer)]
minimal inhibitory concentration (M.I.C.) (E. coli 0-111): 0.05
minimal inhibitory concentration (M.I.C.) (P. morganii IFO 3168): 1.56
minimal inhibitory concentration (M.I.C.) (C. freundii GN 1706): 0.78
minimal inhibitory concentration (M.I.C.) (C. freundii GN 99): 0.39
minimal inhibitory concentration (M.I.C.) (E. coli NIHJ JC-2): 0.39
minimal inhibitory concentration (M.I.C.) (E. coli T-7): 3.13
ED50 (Escherichia coli 0-111): 0.1 mg/kg
minimal inhibitory concentration (M.I.C.) (P. vulgaris GN 4413): 50
minimal inhibitory concentration (M.I.C.) (P. vulgaris IFO 3988): 0.39
minimal inhibitory concentration (M.I.C.) (S. aureus 1840): 3.13
minimal inhibitory concentration (M.I.C.) (S. aureus 209P): 1.56
minimal inhibitory concentration (M.I.C.) (P. rettgeri TN 338): ≤ 0.012
minimal inhibitory concentration (M.I.C.) (P. rettgeri GN4733): 0.39
minimal inhibitory concentration (M.I.C.) (P. mirabilis GN 4359): 0.2
minimal inhibitory concentration (M.I.C.) (K. pneumoniae GN 3835): 0.39
minimal inhibitory concentration (M.I.C.) (K. pneumoniae DT): 0.1
minimal inhibitory concentration (M.I.C.) (E. cloacae TN 1282): 25
minimal inhibitory concentration (M.I.C.) (S. marcescens IFO 12648): 6.25
minimal inhibitory concentration (M.I.C.) (S. marcescens TN 24): 25

CNC(=O)O/N=C(\C(=O)NC1C(=O)N2C(C(=O)O)=C(CSc3nnnn3C)CSC12)c1csc(=N)[nH]1 (stereo not drawn) [Example II - 4, sodium 7-[2-(2-imino-4-thiazolin-4-yl)-2-methylcarbamoyloximinoacetamido]-3-(1-methyl-1H-tetrazol-5-yl)thiomethyl-3-cephem-4-carboxylate (syn-isomer)]
minimal inhibitory concentration (M.I.C.) (E. coli 0-111): 0.024
minimal inhibitory concentration (M.I.C.) (P. morganii IFO 3168): 0.1
minimal inhibitory concentration (M.I.C.) (C. freundii GN 1706): 0.39
minimal inhibitory concentration (M.I.C.) (C. freundii GN 99): 0.1
minimal inhibitory concentration (M.I.C.) (E. coli NIHJ JC-2): 0.2
minimal inhibitory concentration (M.I.C.) (E. coli T-7): 1.56
ED50 (Escherichia coli 0-111): 0.025 mg/kg
minimal inhibitory concentration (M.I.C.) (P. vulgaris GN 4413): 12.5
minimal inhibitory concentration (M.I.C.) (P. vulgaris IFO 3988): 0.1
minimal inhibitory concentration (M.I.C.) (S. aureus 1840): 1.56
minimal inhibitory concentration (M.I.C.) (S. aureus 209P): 1.56
minimal inhibitory concentration (M.I.C.) (P. rettgeri TN 338): ≤ 0.012
minimal inhibitory concentration (M.I.C.) (P. rettgeri GN4733): 0.1
minimal inhibitory concentration (M.I.C.) (P. mirabilis GN 4359): 0.1
minimal inhibitory concentration (M.I.C.) (K. pneumoniae GN 3835): 0.39
minimal inhibitory concentration (M.I.C.) (K. pneumoniae DT): 0.05
minimal inhibitory concentration (M.I.C.) (E. cloacae TN 1282): 1.56
minimal inhibitory concentration (M.I.C.) (S. marcescens IFO 12648): 1.56
minimal inhibitory concentration (M.I.C.) (S. marcescens TN 24): 0.78

CNC(=O)O/N=C(\C(=O)NC1C(=O)N2C(C(=O)O)=C(COC(N)=O)CSC12)c1csc(=N)[nH]1 (stereo not drawn) [Example II - 3, sodium 7-[2-(2-imino-4-thiazolin-4-yl)-2-methylcarbamoyloximinoacetamido]-3-carbamoyloxymethyl-3-cephem-4-carboxylate (syn-isomer)]
minimal inhibitory concentration (M.I.C.) (E. coli 0-111): 0.024
minimal inhibitory concentration (M.I.C.) (P. morganii IFO 3168): 0.78
minimal inhibitory concentration (M.I.C.) (C. freundii GN 1706): 0.2
minimal inhibitory concentration (M.I.C.) (C. freundii GN 99): 0.1
minimal inhibitory concentration (M.I.C.) (E. coli NIHJ JC-2): 0.1
minimal inhibitory concentration (M.I.C.) (E. coli T-7): 0.39
ED50 (Escherichia coli 0-111): 0.016 mg/kg
minimal inhibitory concentration (M.I.C.) (P. vulgaris GN 4413): 50
minimal inhibitory concentration (M.I.C.) (P. vulgaris IFO 3988): 0.05
minimal inhibitory concentration (M.I.C.) (S. aureus 1840): 3.13
minimal inhibitory concentration (M.I.C.) (S. aureus 209P): 3.13
minimal inhibitory concentration (M.I.C.) (P. rettgeri TN 338): ≤ 0.012
minimal inhibitory concentration (M.I.C.) (P. rettgeri GN4733): 0.1
minimal inhibitory concentration (M.I.C.) (P. mirabilis GN 4359): 0.05
minimal inhibitory concentration (M.I.C.) (K. pneumoniae GN 3835): 0.1
minimal inhibitory concentration (M.I.C.) (K. pneumoniae DT): 0.024
minimal inhibitory concentration (M.I.C.) (E. cloacae TN 1282): 6.25
minimal inhibitory concentration (M.I.C.) (S. marcescens IFO 12648): 3.13
minimal inhibitory concentration (M.I.C.) (S. marcescens TN 24): 6.25

O=C(Cc1cccs1)N[C@@H]1C(=O)N2C(C(=O)[O-])=C(C[n+]3ccccc3)CS[C@H]12 [Cephaloridine, 7-(2-thienylacetamido)-3-(1-pyridyl)methyl-3-cephem-4-carboxylic acid betaine, reference compound]
minimal inhibitory concentration (M.I.C.) (E. coli 0-111): 1.56
minimal inhibitory concentration (M.I.C.) (P. morganii IFO 3168): > 100
minimal inhibitory concentration (M.I.C.) (C. freundii GN 1706): > 100
minimal inhibitory concentration (M.I.C.) (C. freundii GN 99): 50
minimal inhibitory concentration (M.I.C.) (E. coli NIHJ JC-2): 3.13
minimal inhibitory concentration (M.I.C.) (E. coli T-7): > 100
ED50 (Escherichia coli 0-111): 2 mg/kg
minimal inhibitory concentration (M.I.C.) (P. vulgaris GN 4413): > 100
minimal inhibitory concentration (M.I.C.) (P. vulgaris IFO 3988): 6.25
minimal inhibitory concentration (M.I.C.) (S. aureus 1840): 0.39
minimal inhibitory concentration (M.I.C.) (S. aureus 209P): 0.05
minimal inhibitory concentration (M.I.C.) (P. rettgeri TN 338): 1.56
minimal inhibitory concentration (M.I.C.) (P. rettgeri GN4733): > 100
minimal inhibitory concentration (M.I.C.) (P. mirabilis GN 4359): 6.25
minimal inhibitory concentration (M.I.C.) (K. pneumoniae GN 3835): 12.5
minimal inhibitory concentration (M.I.C.) (K. pneumoniae DT): 1.56
minimal inhibitory concentration (M.I.C.) (E. cloacae TN 1282): > 100
minimal inhibitory concentration (M.I.C.) (S. marcescens IFO 12648): > 100
minimal inhibitory concentration (M.I.C.) (S. marcescens TN 24): > 100

CNC(=O)O/N=C(\C(=O)NC1C(=O)N2C(C(=O)O)=C(CSc3nnc(C)o3)CSC12)c1csc(=N)[nH]1 (stereo not shown) [Example IV - 10]
minimal inhibitory concentration (M.I.C.) (E. coli 0-111): ≤ 0.2
minimal inhibitory concentration (M.I.C.) (P. morganii IFO 3168): 0.39
minimal inhibitory concentration (M.I.C.) (C. freundii GN 1706): 0.78
minimal inhibitory concentration (M.I.C.) (C. freundii GN 99): 0.39
minimal inhibitory concentration (M.I.C.) (E. coli NIHJ JC-2): 0.39
minimal inhibitory concentration (M.I.C.) (E. coli T-7): 6.25
minimal inhibitory concentration (M.I.C.) (P. vulgaris GN 4413): 25
minimal inhibitory concentration (M.I.C.) (P. vulgaris IFO 3988): 0.39
minimal inhibitory concentration (M.I.C.) (S. aureus 1840): 3.13
minimal inhibitory concentration (M.I.C.) (S. aureus 209P): 1.56
minimal inhibitory concentration (M.I.C.) (P. rettgeri TN 338): ≤ 0.2
minimal inhibitory concentration (M.I.C.) (P. rettgeri GN4733): 0.78
minimal inhibitory concentration (M.I.C.) (P. mirabilis GN 4359): 0.39
minimal inhibitory concentration (M.I.C.) (K. pneumoniae GN 3835): 0.78
minimal inhibitory concentration (M.I.C.) (K. pneumoniae DT): ≤ 0.2
minimal inhibitory concentration (M.I.C.) (E. cloacae TN 1282): 3.13
minimal inhibitory concentration (M.I.C.) (S. marcescens IFO 12648): 6.25
minimal inhibitory concentration (M.I.C.) (S. marcescens TN 24): 6.25
